The source of these data is paper PMC11520136, “Design, synthesis, and biological investigations of new pyrazole derivatives as VEGFR2/CDK-2 inhibitors targeting liver cancer” (BMC Chemistry, 2024).

Test [1] relates to HepG2 cells. Kind of test: MTT cytotoxicity assay against HepG2. Conditions: mean ± SD, n = 3. Type of test: cell-based. As for the experimental part: (§1) The cell lines were supplemented with 10% fetal bovine serum (Sigma-Aldrich, MO, USA) and 1% penicillin–streptomycin. Compounds were added to the cells on the second day at doses of “0, 0.01, 0.1, 1, 10, and 100 μM”. Cell viability was assessed after 48 h using the MTT solution (Promega, USA).

The subject of another test is THLE2 cells. As to the kind of experiment: MTT cytotoxicity assay against THLE2. Conditions: Homo sapiens, THLE-2, 48 h, normal liver cells, mean ± SD, n = 3. Type of test: cell-based. As for the experimental part: as §1
The next test addresses T1, VEGFR2 kinase (Homo sapiens, UniProt P35968).
T1 construct: purchased BPS Bioscience 40,325
Kind of test: VEGFR2 (KDR) kinase assay kit. It counts as biochemical. Conditions: for IC50: average of three independent replicates.

Another test addresses T2, CDK-2 kinase (Homo sapiens, UniProt P24941).
T2 construct: purchased Promega (so in the source) 79,599
Kind of test: CDK-2 luminescence kinase assay kit. Conditions: for IC50: average of three independent replicates. It counts as biochemical.

Test [2] deals with HepG2 cells. As to the kind of experiment: DNA content flow cytometry cell cycle analysis. Type of test: cell-based. Conditions: HepG2, IC50 values, 48 h; for DNA content %G2/M: control 20.6; for DNA content %S: control 37.59; for DNA content %G0-G1: control 41.81. As to the method:
(§2) HepG2 cells (3–5 105 cells/well) were cultured onto 6-well culture plates and incubated overnight. […] The cells and medium supernatants were then washed with ice-cold PBS. After that, […] of annexin binding buffer solution was added to the cell suspension "25 mM CaCl2, 1.4 M NaCl, and 0.1 M Hepes/NaOH, pH 7.4″ and incubation with “Annexin V-FITC solution (1:100) and propidium iodide (PI)” at a concentration equals 10 µg/mL in the dark for 30 min. The Cytoflex FACS system was then used to acquire the stained cells. cytExpert was used for data analysis.
Kit used : ab139418_Propidium Iodide Flow Cytometry Kit/BD

In test [3] the test system is HepG2 cells. As to the kind of experiment: Annexin V/PI staining flow cytometry (apoptosis/necrosis). It counts as cell-based. Also on record: Apoptosis Total / Apoptosis Early / Apoptosis Late: unit not given here. Conditions: for total apoptosis (overall apoptotic cell death): untreated control 0.95%; for Apoptosis Late: Cont.HepG2 0.23; for Apoptosis Early: Cont.HepG2 0.72; for Apoptosis Total: Cont.HepG2 2.47. As to the method: as §2

Another test concerns HepG2 liver cancer cells. Also on record: method as in PMID 32559576, PMID 37234266, doi:10.1016/j.molstruc.2023.135765. Conditions: Fig. 1; read-out: IC50 against HepG2 liver cancer cells; cited from earlier work.
Where [4] appears, read: HepG2, at the IC50 values, 48 h.
[5] abbreviates: HepG2, at the IC50 values, 48 h, untreated control 1.52%.
Where [6] appears, read: supplement lab report, HepG2, Cont.HepG2 1.52.

Structures are written as SMILES. “Also recorded” adds a separate entry of the source.

T1 sequence (P35968 20-1356): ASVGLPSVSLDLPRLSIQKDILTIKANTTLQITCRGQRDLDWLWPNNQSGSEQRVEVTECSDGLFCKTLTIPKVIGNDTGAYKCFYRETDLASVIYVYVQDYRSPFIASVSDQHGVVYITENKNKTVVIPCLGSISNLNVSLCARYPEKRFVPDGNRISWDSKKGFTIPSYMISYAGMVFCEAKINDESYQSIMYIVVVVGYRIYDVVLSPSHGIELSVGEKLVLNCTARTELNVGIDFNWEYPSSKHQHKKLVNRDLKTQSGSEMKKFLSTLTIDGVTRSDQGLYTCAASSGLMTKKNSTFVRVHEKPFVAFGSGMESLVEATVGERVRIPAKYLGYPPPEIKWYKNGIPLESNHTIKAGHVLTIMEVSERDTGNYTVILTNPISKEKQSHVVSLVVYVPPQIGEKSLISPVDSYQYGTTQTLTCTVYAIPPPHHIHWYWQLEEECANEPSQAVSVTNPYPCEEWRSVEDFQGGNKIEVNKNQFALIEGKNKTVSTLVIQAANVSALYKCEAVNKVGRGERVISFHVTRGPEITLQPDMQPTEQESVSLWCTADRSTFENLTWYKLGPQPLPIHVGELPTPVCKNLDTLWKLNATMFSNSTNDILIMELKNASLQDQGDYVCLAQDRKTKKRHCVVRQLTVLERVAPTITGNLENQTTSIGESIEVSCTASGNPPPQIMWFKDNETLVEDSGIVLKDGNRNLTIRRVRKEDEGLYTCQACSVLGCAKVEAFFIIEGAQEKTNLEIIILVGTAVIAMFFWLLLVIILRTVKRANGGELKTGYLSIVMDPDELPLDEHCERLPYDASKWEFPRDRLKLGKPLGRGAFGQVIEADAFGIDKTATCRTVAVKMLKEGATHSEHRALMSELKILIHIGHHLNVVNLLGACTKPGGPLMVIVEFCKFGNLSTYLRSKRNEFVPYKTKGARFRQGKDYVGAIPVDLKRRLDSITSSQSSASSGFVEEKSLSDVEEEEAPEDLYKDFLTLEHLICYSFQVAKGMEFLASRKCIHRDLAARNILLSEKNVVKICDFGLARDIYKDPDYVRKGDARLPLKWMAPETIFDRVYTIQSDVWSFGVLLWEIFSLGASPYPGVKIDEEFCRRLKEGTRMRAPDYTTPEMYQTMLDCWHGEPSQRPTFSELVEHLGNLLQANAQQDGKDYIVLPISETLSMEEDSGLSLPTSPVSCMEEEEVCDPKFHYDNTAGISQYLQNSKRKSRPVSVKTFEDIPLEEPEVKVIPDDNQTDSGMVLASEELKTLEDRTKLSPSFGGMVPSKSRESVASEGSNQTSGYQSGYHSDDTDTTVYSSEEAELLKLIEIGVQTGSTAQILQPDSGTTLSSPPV

`CC1=NN(C(c2ccccc2)N2CCOCC2)C(=O)C1N=Nc1ccccc1` (stereo not drawn) [Compound 3a, 5-Methyl-2-(morpholino(phenyl)methyl)-4-(phenyldiazenyl)-2,4-dihydro-3H-pyrazol-3-one]: the 50% inhibitory concentration (IC50) stood at 33.9 ± 1.89 µM in the test with HepG2 cells [1] (Homo sapiens, HepG2, 48 h) and 41.2 ± 1.19 µM in the test on THLE2 cells.
For `CC1=NN(C(c2ccccc2)N2CCOCC2)C(=O)C1N=Nc1ccccc1[N+](=O)[O-]` (stereo not drawn) [Compound 3b, 5-Methyl-2-(morpholino(phenyl)methyl)-4-((2-nitrophenyl)diazenyl)-2,4-dihydro-3H-pyrazol-3-one], in that order: 55.5 ± 3.1 µM and 47.2 ± 1.85 µM.
In the test with THLE2 cells, `CC1=NN(C(c2ccccc2)N2CCOCC2)C(=O)C1N=Nc1ccc(Cl)cc1` (stereo not drawn) [Compound 3c, 4-((4-Chlorophenyl)diazenyl)-5-methyl-2-(morpholino(phenyl)methyl)-2,4-dihydro-3H-pyrazol-3-one] gave an IC50 of 34.5 ± 2.1 µM.
On to `CC1=NN(C(c2ccccc2)N2CCCCC2)C(=O)C1N=Nc1ccccc1` (stereo not drawn) [Compound 4a, 5-Methyl-2-(phenyl(piperidin-1-yl)methyl)-4-(phenyldiazenyl)-2,4-dihydro-3H -pyrazol-3-one], for which the values for the inhibition at 10 µM against VEGFR2 kinase and at CDK-2 kinase were 90.5 ± 2.1% and 90.9 ± 1.9%, respectively. The IC50 against VEGFR2 kinase is 0.55 ± 0.006 µM; against CDK-2 kinase it was 0.205 ± 0.011 µM; in the test with HepG2 cells [1] (48 h), 4.43 ± 0.25 µM; with HepG2 cells [1] (Homo sapiens, HepG2, 48 h) it was 4.4 µM; in the test on THLE2 cells, 27.3 ± 1.15 µM.
Take `CC1=NN(C(c2ccccc2)N2CCCCC2)C(=O)C1N=Nc1ccccc1[N+](=O)[O-]` (stereo not drawn) [Compound 4b, 5-Methyl-4-((2-nitrophenyl)diazenyl)-2-(phenyl(piperidin-1-yl)methyl)-2,4-dihydro-3H-pyrazol-3-one]: the IC50 in the test on HepG2 cells [1] (48 h) was found to be 9.34 ± 0.52 µM; in the test with HepG2 cells [1] (Homo sapiens, HepG2, 48 h) it was 9.33 µM; with THLE2 cells, 72.4 ± 2.15 µM.
In the case of `CC1=NN(C(c2ccccc2)N2CCCCC2)C(=O)C1N=Nc1ccc(Cl)cc1` (stereo not drawn) [Compound 4c, 4-((4-Chlorophenyl)diazenyl)-5-methyl-2-(phenyl(piperidin-1-yl)methyl)-2,4-dihydro-3H-pyrazol-3-one], the IC50 in the test on HepG2 cells [1] (Homo sapiens, HepG2, 48 h) was found to be 25.2 ± 1.41 µM; in the test on THLE2 cells, 34.7 ± 1.05 µM.
`Cc1nn(C(Nc2ccccc2)c2ccccc2)c(O)c1N=Nc1ccccc1` (stereo not drawn) [Compound 5a, 3-Methyl-1-(phenyl(phenylamino)methyl)-4-(phenyldiazenyl)-1H-pyrazol-5-ol]: in the test on HepG2 cells [2], the “DNA content %G2/M” value worked out at 15.61%, the “DNA content %S” value is 35.21% and the “DNA content %G0-G1” value is on record as 49.18%. Besides, the “cell cycle phase of growth arrest (Comment)” value (“cell cycle phase” below) in the test on HepG2 cells [2] (listed as s20) is on record as “cell growth arrest@ G1”. Further, at VEGFR2 kinase, at 10 µM the inhibition was 91.7 ± 3.1% and the IC50 came to 0.267 ± 0.001 µM. At CDK-2 kinase, this molecule came in with an inhibition at 10 µM of 91 ± 2.1% and an IC50 of 0.311 ± 0.011 µM. Also, the IC50 in the test with HepG2 cells [1] (Homo sapiens, HepG2, 48 h) is 3.46 ± 0.16 µM. Also, the IC50 in the test with THLE2 cells came to 48.7 ± 2.05 µM. For the same molecule, the “total apoptosis (overall apoptotic cell death)” value with HepG2 cells [3] (setting [4]) is 38.32%. The necrosis in the test on HepG2 cells [3] (setting [5]) is given as 4.63%. Besides, in the test on HepG2 cells [3] (supplement lab report, HepG2), the “Apoptosis Late” value is reported as 11.55, the “Apoptosis Early” value came out at 26.77 and the “Apoptosis Total” value amounted to 42.95. The molecule further returned a necrosis in the test on HepG2 cells [3] (setting [6]) of 4.63.
Take `Cc1nn(C(Nc2ccccc2[N+](=O)[O-])c2ccccc2)c(O)c1N=Nc1ccccc1` (stereo not drawn) [Compound 5b, 3-Methyl-1-((2-nitrophenylamino)(phenyl)methyl)-4-(phenyldiazenyl)-1H-pyrazol-5-ol]: the IC50 with HepG2 cells [1] (48 h) came to 17.3 ± 0.8 µM; with HepG2 cells [1] (Homo sapiens, HepG2, 48 h) it was 17.1 µM; in the test with THLE2 cells, 65.2 ± 2.3 µM.
In the test on THLE2 cells, `Cc1nn(C(Nc2c(C)n(C)n(-c3ccccc3)c2=O)c2ccccc2)c(O)c1N=Nc1ccccc1` (stereo not drawn) [Compound 6a, 4-(((5-Hydroxy-3-methyl-4-(phenyldiazenyl)-1H-pyrazol-1-yl)(phenyl)methyl)amino)-1,5-dimethyl-2-phenyl-1,2-dihydro-3H-pyrazol-3-one] displayed a concentration for half-maximal inhibition (IC50) of 75.3 ± 3.3 µM.
For `Cc1nn(C(Nc2c(C)n(C)n(-c3ccccc3)c2=O)c2ccccc2)c(O)c1N=Nc1ccccc1[N+](=O)[O-]` (stereo not drawn) [Compound 6b, 4-(((5-Hydroxy-3-methyl-4-((2-nitrophenyl)diazenyl)-1H-pyrazol-1-yl)(phenyl)methyl)amino)-1,5-dimethyl-2-phenyl-1,2-dihydro-3H-pyrazol-3-one], in the test with HepG2 cells [2], the “cell cycle phase” value is reported as “S-phases; also recorded: S phase”, the “DNA content %G2/M” value is 12.49%, the “DNA content %S” value is 41.33% and the “DNA content %G0-G1” value is reported as 46.18%. Further, the “cell cycle phase” value with HepG2 cells [2] (listed as s31) was “cell growth arrest@ G1/S”. At VEGFR2 kinase, this molecule came in with an inhibition at 10 µM of 93.2 ± 2.9% and an IC50 of 0.2 ± 0.001 µM. At CDK-2 kinase, this molecule displayed an inhibition at 10 µM of 88.7 ± 2.6% and an IC50 of 0.458 ± 0.017 µM. The molecule also had an IC50 with HepG2 cells [1] (Homo sapiens, HepG2, 48 h) of 2.52 ± 0.12 µM. This molecule also gave an IC50 with THLE2 cells of 60.2 ± 2.54 µM. Further, the “total apoptosis (overall apoptotic cell death)” value with HepG2 cells [3] (setting [4]) is given as 42.9%. This molecule also yielded a necrosis in the test on HepG2 cells [3] (setting [5]) of 7.54%. Also, in the test on HepG2 cells [3] (supplement lab report, HepG2), the “Apoptosis Late” value is given as 14.48, the “Apoptosis Early” value is given as 29.17 and the “Apoptosis Total” value worked out at 51.19. In the test with HepG2 cells [3] (setting [6]), this molecule showed a necrosis of 7.54.
In the case of `COc1ccc(OC)c(NC(=O)c2cc(-c3c[nH]c4ccccc34)n[nH]2)c1` [SI], the IC50 in the test on HepG2 liver cancer cells is 0.6 µM.
For the molecule `CNC(=O)c1cc(Oc2ccc(NC(=O)Nc3ccc(Cl)c(C(F)(F)F)c3)cc2)ccn1` [Sorafenib, reference compound], half-maximal inhibition in the test with THLE2 cells (IC50) required 17 ± 0.72 µM.
In the test on HepG2 cells [1] (Homo sapiens, HepG2, 48 h), `COc1cccc2c1C(=O)c1c(O)c3c(c(O)c1C2=O)C[C@@](O)(C(=O)CO)C[C@@H]3O[C@H]1C[C@H](N)[C@H](O)[C@H](C)O1` [doxorubicin, reference compound] displayed a half-maximal inhibitory concentration (IC50) of 2.05 µM.
